The numbers were not newly measured in US20240156891A1, “EXTRACTS OF SALVIA MILTIORRHIZA AND/OR PONCIRUS TRIFOLIATA FOR INHIBITING BODY WEIGHT GAIN” (Taipei Medical University, priority 2022, published 2024), which cites them from elsewhere.

For this data set the following is noted: typical values of solvents.

Each structure is given as a SMILES string.

For `CC(C)=O` [acetone], the “log Kow” value is −0.24.

With `CCOC(C)=O` [ethyl acetate], the “log Kow” value is recorded as 0.66~0.73.

Regarding `CO` [methanol], the “log Kow” value is −0.82~−0.66.

As to `CCCCCC` [n-hexane], the “log Kow” value is reported as 3.17~3.94.
